# Details: buffer; pH 7.4; 200.0 µM
row,Structure (SMILES),solubility kinetic [µg/mL]
1,O=C(OCC(=O)c1ccc[nH]1)C1=COCCO1,> 35.6
2,O=C(CCN1C(=O)c2ccccc2C1=O)NCCCn1ccnc1,> 49
3,O=C(COc1cccnc1[N+](=O)[O-])Nc1c(Cl)cccc1Cl,23.2
4,CC(=O)c1cn(CCOc2ccc(F)cc2)c2ccccc12,10.8
5,COc1ccc(CCNC(=O)COC(=O)Cc2c[nH]c3ccccc23)cc1OC,47
6,CC1CCCN(C(=O)NC(=O)c2ccc(Cl)cc2)C1 (centres undefined),41.8
7,CC(=O)Nc1ccc(-c2csc(-c3cccnc3)n2)cc1,5.9
8,CCOC(=O)c1nc(Nc2cccc(C)c2)c2ccccc2n1,10.8
9,CCNC(=O)CC1C(=O)N(CC)C(=S)N1NC(=O)c1ccccc1 (centres undefined),> 52.3
10,Cn1c(=NC(=O)COc2ccccc2)sc2ccccc21,0.8
11,Cc1cc2ncn(C(=O)c3ccc(F)cc3)c2cc1C,21.6
12,O=C(COC(=O)/C=C/c1ccc([N+](=O)[O-])cc1)NCC1CCCCC1,1.5
13,CC1=NOC(=O)/C1=C/c1ccc(O)c(Cl)c1,> 35.6
14,CC(C)[C@H](NC(=O)c1ccccc1)C(=O)OCC(=O)c1c(N)n(C)c(=O)n(C)c1=O,> 62.5
15,COc1ccc(NC(=O)c2ccccc2SC)c(OC)c1,> 45.5
16,COc1ccc(OC)c(NC(=O)COC(=O)CCc2ccc(S(=O)(=O)N3CCOCC3)cc2)c1,29
17,CN1C(=O)c2ccc(C(=O)Nc3ccc4c(c3)OCO4)cc2C1=O,0.7
18,COc1ccccc1NC(=O)c1ccc(S(=O)(=O)N(C)c2ccccc2OC)cc1,7
19,CC(C)CC(NC(=O)OC(C)(C)C)C(=O)O.O (centres undefined),> 37.4
20,CC(C)c1ccc(N)c(S(=O)(=O)O)c1,> 32.3

row,Structure (SMILES),solubility kinetic [µg/mL]
1,CN1CCN(S(=O)(=O)c2ccc(Cl)s2)CC1,> 42.1
2,CC1CCC2(CC1)NC(=O)N(CC(=O)N1CC(C)CC(C)C1)C2=O (centres undefined),15.8
3,O=C(NC1CC1)c1cc(=S)[nH]c2ccccc12,> 36.6
4,O=C(NC1CCCCCC1)c1ccc(Br)o1,27.7
5,CC1(C)CC(=O)C2=C(C1)OC(N)=C(C#N)C2c1ccc[nH]1 (centres undefined),> 42.5
6,O=C(c1ccc(Cl)cc1)N1CCC2(CC1)OCCO2,39.6
7,COc1ccc2c(c1OC)C(=O)N1C2SC(C)(C)[C@H]1C(=O)NC1CC1 (some centres undefined),> 54.4
8,O=C(CSc1nncn1-c1ccccc1)NC1CCCC1,> 45.4
9,Cc1cccc(C2N=C(N)Nc3nc4ccccc4n32)c1 (centres undefined),34.3
10,CN1C2CCC1CC(NC(=O)c1ccc(Cl)cc1)C2 (centres undefined),> 41.8
11,Cc1ccc(S(=O)(=O)N2CCc3ccccc3C2)cc1,< 0.6
12,CCc1ccc2nc(/N=C(\N)NC(=O)c3ccccc3)nc(C)c2c1,< 0.1
13,Cn1c(C(=O)N2CCN(c3ccc(F)cc3)CC2)cc2ccccc21,2.8
14,O=C(Nc1ccc2c(c1)OCCO2)c1cccc(Br)c1,3.2
15,CC(NC(=O)C(=O)NCC1CCCO1)c1ccccc1 (centres undefined),> 41.5
16,O=C1CSC(c2cccc([N+](=O)[O-])c2)N1c1ccccc1F (centres undefined),37.7
17,O=C(O)COCC(=O)NC1CCN(Cc2ccccc2)CC1,> 46
18,O=c1cc(/N=C/c2coc3cc(Br)ccc3c2=O)[nH]c(=S)[nH]1,3
19,COCCN1Cc2cccc(C(=O)NCCc3ccccc3)c2C1=O,41.5
20,CO/N=C/C(NC(=O)c1ccc(C(F)(F)F)cc1)C(=O)OC (centres undefined),> 47.7

row,Structure (SMILES),solubility kinetic [µg/mL]
1,Cc1cccc(NC(=O)C2CC3CCC2C3)c1C (centres undefined),10.5
2,Cc1[nH]c(=O)c(C#N)c(C)c1[N+](=O)[O-],27.3
3,COc1ccccc1CNC(=O)CN1C(=O)NC(c2ccccc2)(c2ccccc2)C1=O,3.1
4,CN(C)S(=O)(=O)c1ccc(NC=O)cc1,> 34.2
5,COc1cc2c(cc1OC)CN(C(=O)CCN1C(=O)C3CCCCC3C1=O)CC2 (centres undefined),46.2
6,Cc1cc(C)c(S(=O)(=O)c2cccc(C)c2C)c(=O)[nH]1,> 43.7
7,Cc1cc(=O)oc2cc(OCC(=O)OC(C)C(=O)Nc3ccc(S(N)(=O)=O)cc3)ccc12 (centres undefined),> 69.1
8,CN(C(=O)CN1CCN(c2ccc([N+](=O)[O-])cn2)CC1)c1ccccc1,> 53.3
9,C(/C=C/c1ccccn1)=C\c1ccccc1,0.7
10,O=C(Nc1ccccc1C(=O)NCCCN1CCOCC1)c1ccc(F)cc1F,59.6
11,COc1ccc(-c2nc3ncccc3o2)cc1NC(=O)c1cccs1,0.3
12,COc1ccc(C(C)=O)cc1CC(=O)NC1CCCCCC1,39.2
13,COP(=O)(NS(=O)(=O)c1ccccc1)OC,33.9
14,Cc1oncc1C(=O)Nc1cccc2ccccc12,34
15,CCOC(=O)N1CCC(NC(=O)c2cccs2)CC1,37.8
16,CC(=O)c1cc(F)ccc1OCC(=O)N1CCCc2ccccc21,44.1
17,COc1ccc(CN(C)Cc2c(O)ccc3ccccc23)cc1,16.7
18,O=C(CCCN1C(=O)/C(=C/c2ccccc2OC(F)F)SC1=S)Nc1cccnc1,4.5
19,O=C(COc1ccccc1)Nc1cc2c3c(c1)CC(=O)N3CCC2,> 48.4

# Source: PubChem BioAssay AID1996
